US20230278972A1, “SUBSTITUTED HALOALKYL SULFONANILIDE HERBICIDES” (FMC Corporation, priority 2020, published 2023)

Experiments:
Assay type in all cases: in vivo
[1] = system: Ryegrass, Italian (Italian ryegrass, Lolium multiflorum); assay: Test A1 postemergence, Ryegrass, Italian; conditions: for Ryegrass, Italian plant response rating: 31 g ai/ha, postemergence; for Plant response rating, Ryegrass, Italian: Postemergence
In short: (§1)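 Test compounds were formulated in a non-phytotoxic solvent mixture containing a surfactant. For preemergence, seeds sown in a loam soil–sand blend received a directed soil spray. For postemergence, potted plants in the same soil, 2 to 10 cm tall at the one- to two-leaf stage, were sprayed.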

[2] = system: kochia (Bassia scoparia); assay: Test A1 postemergence, kochia; conditions: for Kochia plant response rating: 31 g ai/ha, postemergence; for Plant response rating, Kochia: Postemergence
In short: as §1

[3] = system: blackgrass (Alopecurus myosuroides); assay: Test A1 preemergence, blackgrass
In short: (§2)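 Herbicidal response was scored on plants treated either preemergence, by directed spray onto soil of a loam–sand blend after sowing, or postemergence on potted plants at the one- to two-leaf stage, 2–10 cm high. Test chemicals were carried in a non-phytotoxic solvent mix with surfactant.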

[4] = system: goosegrass (Eleusine indica); assay: Test A1 preemergence, goosegrass
In short: as §2

[5] = system: corn (Zea mays); assay: Test A1 preemergence, corn
In short: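 Pre: seeds in loam/sand blend, directed soil spray. Post: potted plants, same soil, 2–10 cm, 1–2 leaf stage. Chemicals in non-phytotoxic solvent + surfactant for both.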

[6] = system: barnyardgrass (Echinochloa crus-galli); assay: Test B1 flooded paddy test, barnyardgrass; conditions: 250 g ai/ha, Flood, applied to paddy water, 2-leaf stage, visually evaluated after 10 to 14 days
Excerpt: A dash (-) response means no test result.

[7] = 0 to 100 scale (0 no effect, 100 complete control)
[8] = 31 g ai/ha, 0 to 100 scale (0 no effect, 100 complete control)
[9] = 125 g ai/ha, 0 to 100 scale, 0 no effect, 100 complete control
[10] = 125 g ai/ha, 0 to 100 scale (0 no effect, 100 complete control), 10 days
[11] = 500 g ai/ha, 0 to 100 scale (0 no effect, 100 complete control)
[12] = 125 g ai/ha, 0 to 100 scale (0 no effect, 100 complete control)

Structure (SMILES)	Ryegrass, Italian plant response rating [1, 7]	Plant response rating, Ryegrass, Italian ([1]; 125 g ai/ha, 0 to 100 scale)	Kochia plant response rating [2, 7]	Plant response rating, Kochia ([2]; 125 g ai/ha, 0 to 100 scale)	Plant response rating, Blackgrass [3, 8]	Plant response rating, Blackgrass [3, 9]	Plant response rating, Goosegrass [4, 8]	Plant response rating, Goosegrass [4, 9]	Plant response rating, Corn [5, 8]	Plant response rating, Corn [5, 9]	Plant response rating, Barnyardgrass (0 to 100 scale, 0 is no effect, 100 is complete control) [6]	Plant response rating, Ryegrass, Italian [1, 10]	Plant response rating, Kochia [2, 10]	Plant response rating, Ryegrass, Italian ([1]; 500 g ai/ha, 0 to 100 scale)	Plant response rating, Kochia ([2]; 500 g ai/ha, 0 to 100 scale)	Plant response rating, Blackgrass [3, 11]	Plant response rating, Goosegrass [4, 11]	Plant response rating, Corn [5, 11]	Plant response rating, Goosegrass [4, 12]
CCC1CC(c2cc(N(COC(=O)C(C)(C)C)S(=O)(=O)C(F)(F)F)c(C)cc2C)=NO1 (centres unmarked) [Compound 376]	0	0	0	50	0	20	50	100	0	0	95								
Cc1cc(C)c(N2CC3(CCCCC3)CC2=O)cc1NS(=O)(=O)C(F)(F)F [Compound 392]	0		10		10	40	40	100	10	10	0	0	20						
Cc1cc(Cl)c(NS(=O)(=O)C(F)(F)F)cc1N1CCC2(CCCCC2)C1=O [Compound 393]	30		20		70	90	100	100	0	80	0	50	60						
Cc1cc(Cl)c(NS(=O)(=O)C(F)(F)F)cc1N1CC2(CCCCC2)OC1=O [Compound 394]	20		40		0	70	80	100	0	20	0	40	80						
Cc1cc(C)c(N(COC(=O)C(C)(C)C)S(=O)(=O)C(F)(F)F)cc1N1CCC2(CCC(F)(F)CC2)C1=O [Compound 397]						40		100		10	90	50	90	80	90	90	100	60	
COC1CCC2(CC1)CCN(c1cc(NS(=O)(=O)C(F)(F)F)c(C)cc1C)C2=O (centres unmarked) [Compound 398]	50		20		60	90	100	100	0	60	85	90	70						
Cc1cc(C)c(N(S(=O)(=O)C(F)(F)F)S(=O)(=O)C(F)(F)F)cc1N1CCC2(CCC(C(F)(F)F)CC2)C1=O (centres unmarked) [Compound 399]	0		30		20	60	90	90	0	0	0	70	70						
Cc1cc(C)c(N2CCC3(CCC(C(F)(F)F)CC3)C2=O)cc1NS(=O)(=O)C(F)(F)F (centres unmarked) [Compound 400]	0		20		20	80	90	100	0	20	20	0	70						
Cc1cc(C)c(N2Cc3cccc(C)c3C2=O)cc1NS(=O)(=O)Cl [Compound 408]	70		60		90	100	100		40	90	98	80	60						100
COc1cccc2c1C(=O)N(c1cc(N(COC(=O)C(C)(C)C)S(=O)(=O)Cl)c(C)cc1C)C2 [Compound 413]	0		20		20	20	50		0	10	40	0	80						80
